{"source": "patent US7875452B2", "about": "“Non-desensitizing mutant of the transient receptor potential TRPM5 ion channel” (Redpoint Bio Corporation, priority 2007, dated 2011)", "assay_type_in_all_cases": "cell-based", "key": {"[1]": {"biological_target": "T1, non-desensitizing (His)6-hTRPM5 ion channel (Homo sapiens, UniProt Q9NZQ8)", "T1 construct": "expressed in transfected cells; host or cells: HEK 293 cells (ATCC), transient transfection with pcDNA-DEST-26-(His)6-hTRPM5", "T1 sequence (Q9NZQ8 with tags, fused parts or gaps)": "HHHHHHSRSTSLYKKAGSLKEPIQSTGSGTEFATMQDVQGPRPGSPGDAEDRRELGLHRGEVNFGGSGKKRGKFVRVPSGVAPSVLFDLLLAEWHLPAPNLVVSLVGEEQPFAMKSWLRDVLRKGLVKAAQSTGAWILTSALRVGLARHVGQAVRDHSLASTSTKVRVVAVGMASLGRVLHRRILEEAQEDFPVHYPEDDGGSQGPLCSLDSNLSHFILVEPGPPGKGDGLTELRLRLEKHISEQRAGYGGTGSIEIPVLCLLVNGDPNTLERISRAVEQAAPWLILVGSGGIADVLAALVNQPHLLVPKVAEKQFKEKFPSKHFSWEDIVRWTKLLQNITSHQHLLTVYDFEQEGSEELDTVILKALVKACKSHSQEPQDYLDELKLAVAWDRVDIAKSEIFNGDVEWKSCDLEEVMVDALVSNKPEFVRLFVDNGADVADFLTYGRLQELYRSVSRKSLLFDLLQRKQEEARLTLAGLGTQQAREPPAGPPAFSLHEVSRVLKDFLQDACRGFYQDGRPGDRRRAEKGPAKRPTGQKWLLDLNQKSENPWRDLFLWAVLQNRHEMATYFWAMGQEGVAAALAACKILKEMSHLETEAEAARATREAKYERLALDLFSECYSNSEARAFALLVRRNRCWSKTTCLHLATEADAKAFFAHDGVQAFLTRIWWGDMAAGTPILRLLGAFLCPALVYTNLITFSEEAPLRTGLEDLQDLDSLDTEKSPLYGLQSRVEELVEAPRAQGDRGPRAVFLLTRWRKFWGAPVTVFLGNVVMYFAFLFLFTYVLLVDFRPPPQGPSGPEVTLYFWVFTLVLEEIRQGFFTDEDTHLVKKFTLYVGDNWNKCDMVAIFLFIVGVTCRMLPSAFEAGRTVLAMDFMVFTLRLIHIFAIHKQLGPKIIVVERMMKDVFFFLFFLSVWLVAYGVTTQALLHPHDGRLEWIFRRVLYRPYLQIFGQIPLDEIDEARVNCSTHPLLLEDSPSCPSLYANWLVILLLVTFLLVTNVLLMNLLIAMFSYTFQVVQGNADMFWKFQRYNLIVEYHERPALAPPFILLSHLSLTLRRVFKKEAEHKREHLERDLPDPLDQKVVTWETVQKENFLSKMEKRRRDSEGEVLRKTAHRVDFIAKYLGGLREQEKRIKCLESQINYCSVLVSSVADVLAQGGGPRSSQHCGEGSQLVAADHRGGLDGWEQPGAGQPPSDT", "experiment": "FMP dye membrane potential assay in cells transfected with non-desensitizing (His)6-hTRPM5", "settings": "10 μM ATP, HEK 293 cells transiently transfected with (His)6-hTRPM5, FIG. 3", "procedure": "(§1) 5.0×10^6 HEK 293 cells (ATCC) were plated in a 10 cm culture dish at 37° C. in a CO2 incubator in Dulbecco's Modified Eagle's Medium (DMEM) supplemented with 10% Fetal Bovine Serum (FBS) and Penicillin-Streptomycin Solution. The following day, medium in the culture dish was exchanged with 15 mL of DMEM/10% FBS over a period of 3 hours. Prior to cell transfection, 24 μg of pcDNA-DEST-26-(His)6-hTRPM5 was incubated in a 5 mL polypropylene tube for 5 minutes at room temperature in 1.5 mL of OPTI-MEM media (Invitrogen). In a separate 5 mL polypropylene tube, 42 μL of Lipofectamine™ 2000 (Invitrogen) was incubated for 5 minutes at room temperature in 1.5 mL of OPTI-MEM media. […] Plates were then assayed on a FLIPR Tetra reader as described.\n(§2) 100 μl of the Blue or Red FMP dye (Molecular Devices) was added to each well of plates seeded with HEK cells transiently transfected with pDEST-26™-(His)6-hTRPM 5. […] The plate was read in a FLEXStation™ microplate reader (Molecular Devices) with an excitation of 530 nm and an emission of 565 nm. The fluorescence was monitored for 3 minutes upon exposure of the cells to a calcium activating agent (carbachol, thrombin peptide or ATP). […]\nCells transfected with non-desensitizing (His)6-hTRPM5 DNA were loaded with FMP dye and then treated with 10 μM ATP and monitored for an increase in cellular fluorescence in the FLEXstation™. […]"}, "[2]": {"biological_target": "T2, wildtype hTRPM5 (Homo sapiens, UniProt Q9NZQ8)", "T2 construct": "the full length hTRPM5 was amplified by PCR using GC Melt; expressed in transfected cells; host or cells: HEK 293 cells", "T2 sequence (Q9NZQ8 1-1165)": "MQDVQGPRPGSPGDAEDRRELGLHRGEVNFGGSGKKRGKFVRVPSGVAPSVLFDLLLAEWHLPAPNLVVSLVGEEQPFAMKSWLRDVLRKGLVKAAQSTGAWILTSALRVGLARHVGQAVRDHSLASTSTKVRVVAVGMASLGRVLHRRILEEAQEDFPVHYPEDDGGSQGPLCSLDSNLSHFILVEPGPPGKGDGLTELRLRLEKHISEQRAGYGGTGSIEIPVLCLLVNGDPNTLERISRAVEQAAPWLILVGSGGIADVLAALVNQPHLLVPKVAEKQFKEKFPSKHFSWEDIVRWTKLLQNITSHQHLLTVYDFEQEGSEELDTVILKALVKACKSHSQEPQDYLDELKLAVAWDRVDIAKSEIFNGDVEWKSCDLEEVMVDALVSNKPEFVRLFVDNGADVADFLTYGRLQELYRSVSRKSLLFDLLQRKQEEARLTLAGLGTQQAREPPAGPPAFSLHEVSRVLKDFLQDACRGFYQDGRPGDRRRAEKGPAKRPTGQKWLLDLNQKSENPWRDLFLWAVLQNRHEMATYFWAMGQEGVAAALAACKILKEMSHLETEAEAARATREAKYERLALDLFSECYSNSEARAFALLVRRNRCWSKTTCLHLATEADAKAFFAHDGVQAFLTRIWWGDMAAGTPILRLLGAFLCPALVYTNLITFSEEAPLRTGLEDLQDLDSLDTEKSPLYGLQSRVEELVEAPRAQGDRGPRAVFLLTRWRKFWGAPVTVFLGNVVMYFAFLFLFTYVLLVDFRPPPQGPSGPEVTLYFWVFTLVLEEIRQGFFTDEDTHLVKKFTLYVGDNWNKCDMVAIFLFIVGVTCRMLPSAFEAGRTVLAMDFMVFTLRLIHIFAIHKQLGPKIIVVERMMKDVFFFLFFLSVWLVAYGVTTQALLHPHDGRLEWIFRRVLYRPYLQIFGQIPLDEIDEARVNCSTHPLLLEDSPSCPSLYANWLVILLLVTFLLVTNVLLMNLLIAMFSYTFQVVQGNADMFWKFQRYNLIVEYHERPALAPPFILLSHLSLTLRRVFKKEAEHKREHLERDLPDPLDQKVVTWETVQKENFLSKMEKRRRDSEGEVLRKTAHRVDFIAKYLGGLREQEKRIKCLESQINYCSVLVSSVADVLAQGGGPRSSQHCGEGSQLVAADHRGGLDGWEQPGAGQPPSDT", "experiment": "FMP dye membrane potential assay in cells transfected with wildtype hTRPM5", "settings": "10 μM ATP, cells transfected with wildtype hTRPM5, FIG. 3", "procedure": "as §1, with “media. After the 5 minute incubation period, the pcDNA-DEST-26-(His)6-hTRPM5 and Lipofectamine™ 2000 solutions were mixed together and incubated for an additional 20 minutes at room temperature.” for “media.”\nas §2"}, "[3]": {"tested_on": "cells transfected with PSV3 Neo", "experiment": "FMP dye membrane potential assay in sham cells transfected with PSV3 Neo empty vector", "settings": "10 μM ATP, sham control, FIG. 3", "procedure": "100 μl of the Blue or Red FMP dye (Molecular Devices) was added to each well of plates seeded with HEK cells transiently transfected with pDEST-26™-(His)6-hTRPM 5. The plate was then incubated in a 37° C. /5% CO2 incubator for 1 hour. The plate was read in a FLEXStation™ microplate reader (Molecular Devices) with an excitation of 530 nm and an emission of 565 nm. The fluorescence was monitored for 3 minutes upon exposure of the cells to a calcium activating agent (carbachol, thrombin peptide or ATP).\nCells transfected with either wildtype hTRPM5 DNA, non-desensitizing (His)6-hTRPM5 DNA or PSV3 Neo were loaded with FMP dye and then treated with 10 μM ATP and monitored for an increase in cellular fluorescence in the FLEXstation™."}}, "data": [{"smiles": "Nc1ncnc2c1ncn2[C@@H]1O[C@H](COP(=O)(O)OP(=O)(O)OP(=O)(O)O)[C@@H](O)[C@H]1O", "note": "[ATP, adenosine triphosphate]", "values": [{"measurement": "time for which fluorescence is observed at significant levels after activation", "setting": "[1]", "result": "more than 3 minutes"}, {"measurement": "duration of increase in fluorescence (initial activation) before rapid inactivation", "setting": "[2]", "result": "about 30 seconds"}, {"measurement": "membrane potential response (cellular fluorescence) to application", "setting": "[3]", "result": "no significant response"}]}]}
